From US6358921B1, “Antimicrobial peptide compositions and method” (priority 1996, dated 2002)

Key:
[1] = test system: B. subtilis; assay type: cell-based, Bacillus subtilis
In short: (§1)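 Antimicrobial activity is measured by a liquid-broth assay in LB at 37 °C overnight, starting from 5×10^5 CFU/mL. Values are minimal inhibitory concentrations, i.e. the lowest concentration that stops growth.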

[2] = test system: E. coli UB1005; assay type: cell-based, Escherichia coli; settings: UB1005
In short: (§2)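 Growth inhibition was scored after overnight culture at 37 °C in LB with peptide serial dilutions (inoculum 5×10^5 CFU/mL); MICs were the lowest inhibitory concentrations. Test strains were E. coli UB1005 (wild type), C. xerosis (environmental), and C. albicans and S. epidermidis (clinical isolates).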

[3] = Displacement of dansyl-polymyxin from LPS; assay type: binding, P. aeruginosa; settings: read-out: LPS binding affinity: peptide concentration to displace 50% of dansyl-polymyxin B from LPS; Tables 1, 4, 7
In short: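 Peptides titrated into 3 μg/mL P. aeruginosa LPS with 2.5 μM dansyl-polymyxin (~90% site saturation) in 5 mM sodium HEPES, pH 7.0; fluorescence decrease recorded. I50 (50% probe displacement) taken from the x-intercept of a double-reciprocal plot of percent inhibition versus inhibitor concentration.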

[4] = test system: S. epidermidis; assay type: cell-based, Staphylococcus epidermidis
In short: as §2

[5] = test system: C. Albicans; assay type: cell-based, Candida albicans
In short: as §2

[6] = test system: E. coli DC2; assay type: cell-based, Escherichia coli; settings: DC2
In short: (§3)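 MIC read-out, μg/ml, lowest peptide concentration with no growth after overnight incubation at 37 °C in LB liquid broth. Inoculum 5×10^5 CFU/mL from overnight cultures. Therapeutic index = concentration giving complete blood-cell lysis at 4 h divided by MIC.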

[7] = test system: P. aeruginosa H187; assay type: cell-based, Pseudomonas aeruginosa; settings: H187
In short: as §3

[8] = test system: C. xeroses; assay type: cell-based, Corynebacterium xerosis
In short: as §2

[9] = test system: E. faecalis; assay type: cell-based, Enterococcus faecalis
In short: as §1

[10] = test system: S. aureus K147; assay type: cell-based, Staphylococcus aureus
In short: (§4)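 Minimum inhibitory concentrations come from a broth rather than agar assay, using LB medium, a final inoculum of 5×10^5 CFU/mL and overnight incubation at 37 °C. Values are in μg/ml.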

[11] = test system: S. aureus SAP0017; assay type: cell-based, Staphylococcus aureus
In short: as §4

[12] = test system: S. typhinurium C610; assay type: cell-based, Salmonella typhinurium
In short: as §1

[13] = test system: S. typhinurium C587; assay type: cell-based, Salmonella typhinurium
In short: as §1

[14] = test system: human erythrocytes; experiment: Hemolytic activity; assay type: cell-based
Procedure: Serial dilutions of the peptides in saline were prepared in round bottom microtitre plates using 100 μL volumes. Red blood cells were diluted with saline to 1/25 packed volume of cells and 50 μL added to each well. Plates were incubated with rocking at 37° C., and the concentration required for complete lysis determined visually after 4 h.

[15] = test system: P. aeruginosa H188; assay type: cell-based, Pseudomonas aeruginosa; settings: H188
In short: as §1

SMILES: CC(C)C[C@@H]1NC(=O)[C@H](CCCCN)NC(=O)[C@H](C(C)C)NC(=O)[C@H](CCCCN)NC(=O)[C@@H]2CCCN2C(=O)[C@@H](Cc2ccc(O)cc2)NC(=O)[C@H](CCCCN)NC(=O)[C@H](CC(C)C)NC(=O)[C@H](CCCCN)NC(=O)[C@H](C(C)C)NC(=O)[C@@H](CCCCN)NC(=O)[C@@H]2CCCN2C(=O)[C@@H](Cc2ccc(O)cc2)NC(=O)[C@H](CCCCN)NC1=O [GS14invK1]
- Minimum Inhibitory Concentration (activity) [1]: >200 µg/mL
- Minimum Inhibitory Concentration (activity) [2]: 25 µg/mL
- IC50 [3]: 43 µM
- Minimum Inhibitory Concentration (activity) [4]: 100 µg/mL
- Minimum Inhibitory Concentration (activity) [5]: 200 µg/mL
- Minimum Inhibitory Concentration (activity) [6]: 25 µg/mL
- Minimum Inhibitory Concentration (activity) [7]: 12.5 µg/mL
- Minimum Inhibitory Concentration (activity) [8]: 6.2 µg/mL
- Minimum Inhibitory Concentration (activity) [9]: >200 µg/mL
- Minimum Inhibitory Concentration (activity) [10]: >200 µg/mL
- Minimum Inhibitory Concentration (activity) [11]: >200 µg/mL
- Minimum Inhibitory Concentration (activity) [12]: 62 µg/mL
- Minimum Inhibitory Concentration (activity) [13]: 150 µg/mL
- Hemolytic activity: peptide concentration for 100% lysis of human erythrocytes [14]: >800 µg/mL
- Minimum Inhibitory Concentration (activity) [15]: 9 µg/mL

SMILES: CC(C)C[C@@H]1NC(=O)[C@H](CCCCN)NC(=O)[C@H](C(C)C)NC(=O)[C@H](CCCCN)NC(=O)[C@@H]2CCCN2C(=O)[C@@H](Cc2ccc(O)cc2)NC(=O)[C@H](CCCCN)NC(=O)[C@H](CC(C)C)NC(=O)[C@H](CCCCN)NC(=O)[C@H](C(C)C)NC(=O)[C@H](CCCCN)NC(=O)[C@@H]2CCCN2C(=O)[C@@H](Cc2ccc(O)cc2)NC(=O)[C@H](CCCCN)NC1=O [GS14inv]
- Minimum Inhibitory Concentration (activity) [1]: >200 µg/mL
- Minimum Inhibitory Concentration (activity) [2]: 12.5 µg/mL
- IC50 [3]: 14 µM
- Minimum Inhibitory Concentration (activity) [4]: 25 µg/mL
- Minimum Inhibitory Concentration (activity) [5]: 25 µg/mL
- Minimum Inhibitory Concentration (activity) [6]: 0.8 µg/mL
- Minimum Inhibitory Concentration (activity) [7]: 12.5 µg/mL
- Minimum Inhibitory Concentration (activity) [8]: 0.8 µg/mL
- Minimum Inhibitory Concentration (activity) [9]: 200 µg/mL
- Minimum Inhibitory Concentration (activity) [10]: >200 µg/mL
- Minimum Inhibitory Concentration (activity) [11]: 200 µg/mL
- Minimum Inhibitory Concentration (activity) [12]: 3.1 µg/mL
- Minimum Inhibitory Concentration (activity) [13]: 50 µg/mL
- Hemolytic activity: peptide concentration for 100% lysis of human erythrocytes [14]: >800 µg/mL
- Minimum Inhibitory Concentration (activity) [15]: 6.2 µg/mL

SMILES: CC(C)C[C@@H]1NC(=O)[C@H](C(C)C)NC(=O)[C@H](CC(C)C)NC(=O)[C@@H]2CCCN2C(=O)[C@@H](Cc2ccc(O)cc2)NC(=O)[C@H](C(C)C)NC(=O)[C@H](CC(C)C)NC(=O)[C@H](C(C)C)NC(=O)[C@H](CCCCN)NC(=O)[C@H](CCCCN)NC(=O)[C@@H]2CCCN2C(=O)[C@@H](Cc2ccc(O)cc2)NC(=O)[C@H](CCCCN)NC(=O)[C@H](CCCCN)NC1=O [GS14napol]
- Minimum Inhibitory Concentration (activity) [1]: >200 µg/mL
- Minimum Inhibitory Concentration (activity) [2]: 18 µg/mL
- IC50 [3]: 98 µM
- Minimum Inhibitory Concentration (activity) [4]: 25 µg/mL
- Minimum Inhibitory Concentration (activity) [5]: 37 µg/mL
- Minimum Inhibitory Concentration (activity) [6]: 4 µg/mL
- Minimum Inhibitory Concentration (activity) [7]: 50 µg/mL
- Minimum Inhibitory Concentration (activity) [8]: 1.2 µg/mL
- Minimum Inhibitory Concentration (activity) [9]: 75 µg/mL
- Minimum Inhibitory Concentration (activity) [10]: >200 µg/mL
- Minimum Inhibitory Concentration (activity) [11]: 200 µg/mL
- Minimum Inhibitory Concentration (activity) [12]: 25 µg/mL
- Minimum Inhibitory Concentration (activity) [13]: 50 µg/mL
- Hemolytic activity: peptide concentration for 100% lysis of human erythrocytes [14]: 800 µg/mL
- Minimum Inhibitory Concentration (activity) [15]: 9 µg/mL

SMILES: CC(C)[C@@H]1NC(=O)[C@H](CCCCN)NC(=O)[C@H](C)NC(=O)[C@@H]2CCCN2C(=O)[C@@H](Cc2ccc(O)cc2)NC(=O)[C@H](C(C)C)NC(=O)[C@@H](CCCCN)NC(=O)[C@H](C)NC(=O)[C@H](CCCCN)NC(=O)[C@H](C(C)C)NC(=O)[C@@H]2CCCN2C(=O)[C@@H](Cc2ccc(O)cc2)NC(=O)[C@H](C)NC(=O)[C@H](CCCCN)NC1=O [L3/A3]
- Minimum Inhibitory Concentration (activity) [1]: >200 µg/mL
- Minimum Inhibitory Concentration (activity) [2]: 200 µg/mL
- IC50 [3]: 243 µM
- Minimum Inhibitory Concentration (activity) [4]: >200 µg/mL
- Minimum Inhibitory Concentration (activity) [5]: >200 µg/mL
- Minimum Inhibitory Concentration (activity) [6]: 200 µg/mL
- Minimum Inhibitory Concentration (activity) [7]: 200 µg/mL
- Minimum Inhibitory Concentration (activity) [8]: 100 µg/mL
- Minimum Inhibitory Concentration (activity) [9]: >200 µg/mL
- Minimum Inhibitory Concentration (activity) [10]: >200 µg/mL
- Minimum Inhibitory Concentration (activity) [11]: >200 µg/mL
- Minimum Inhibitory Concentration (activity) [12]: 100 µg/mL
- Minimum Inhibitory Concentration (activity) [13]: >200 µg/mL
- Hemolytic activity: peptide concentration for 100% lysis of human erythrocytes [14]: >800 µg/mL
- Minimum Inhibitory Concentration (activity) [15]: 75 µg/mL

SMILES: CC(C)C[C@@H]1NC(=O)[C@H](CCCCN)NC(=O)[C@H](C)NC(=O)[C@@H]2CCCN2C(=O)[C@@H](Cc2ccc(O)cc2)NC(=O)[C@H](CC(C)C)NC(=O)[C@H](CCCCN)NC(=O)[C@H](C)NC(=O)[C@H](CCCCN)NC(=O)[C@H](CC(C)C)NC(=O)[C@@H]2CCCN2C(=O)[C@@H](Cc2ccc(O)cc2)NC(=O)[C@H](C)NC(=O)[C@@H](CCCCN)NC1=O [V3/A3]
- Minimum Inhibitory Concentration (activity) [1]: >200 µg/mL
- Minimum Inhibitory Concentration (activity) [2]: 12.5 µg/mL
- IC50 [3]: 163 µM
- Minimum Inhibitory Concentration (activity) [4]: 50 µg/mL
- Minimum Inhibitory Concentration (activity) [5]: 50 µg/mL
- Minimum Inhibitory Concentration (activity) [6]: 9 µg/mL
- Minimum Inhibitory Concentration (activity) [7]: 75 µg/mL
- Minimum Inhibitory Concentration (activity) [8]: 3.1 µg/mL
- Minimum Inhibitory Concentration (activity) [9]: >200 µg/mL
- Minimum Inhibitory Concentration (activity) [10]: >200 µg/mL
- Minimum Inhibitory Concentration (activity) [11]: >200 µg/mL
- Minimum Inhibitory Concentration (activity) [12]: 62 µg/mL
- Minimum Inhibitory Concentration (activity) [13]: 35 µg/mL
- Hemolytic activity: peptide concentration for 100% lysis of human erythrocytes [14]: >800 µg/mL
- Minimum Inhibitory Concentration (activity) [15]: 18 µg/mL

SMILES: CC(C)C[C@@H]1NC(=O)[C@H](CCCCN)NC(=O)[C@H](CC(C)C)NC(=O)[C@@H]2CCCN2C(=O)[C@@H](Cc2ccc(O)cc2)NC(=O)[C@H](CC(C)C)NC(=O)[C@@H](CCCCN)NC(=O)[C@H](CC(C)C)NC(=O)[C@H](CCCCN)NC(=O)[C@H](CC(C)C)NC(=O)[C@@H]2CCCN2C(=O)[C@@H](Cc2ccc(O)cc2)NC(=O)[C@H](CC(C)C)NC(=O)[C@H](CCCCN)NC1=O [V3/L3]
- Minimum Inhibitory Concentration (activity) [1]: 9 µg/mL
- Minimum Inhibitory Concentration (activity) [2]: 6.2 µg/mL
- IC50 [3]: 46 µM
- Minimum Inhibitory Concentration (activity) [4]: 1.5 µg/mL
- Minimum Inhibitory Concentration (activity) [5]: 4 µg/mL
- Minimum Inhibitory Concentration (activity) [6]: 3.1 µg/mL
- Minimum Inhibitory Concentration (activity) [7]: 100 µg/mL
- Minimum Inhibitory Concentration (activity) [8]: 1 µg/mL
- Minimum Inhibitory Concentration (activity) [9]: 1.5 µg/mL
- Minimum Inhibitory Concentration (activity) [10]: 25 µg/mL
- Minimum Inhibitory Concentration (activity) [11]: 12.5 µg/mL
- Minimum Inhibitory Concentration (activity) [12]: 15 µg/mL
- Minimum Inhibitory Concentration (activity) [13]: 100 µg/mL
- Hemolytic activity: peptide concentration for 100% lysis of human erythrocytes [14]: 25 µg/mL
- Minimum Inhibitory Concentration (activity) [15]: 3.1 µg/mL
